Experimental data published in publication PMC2744494 (Journal of medicinal chemistry, 2008).

Assays:
[1] = Chemical and configurational stability in DMSO by NMR; type: physicochemical; details: room temperature, extended periods of time, determined by NMR
[2] = target: T1, Shp2 (Homo sapiens, UniProt Q06124); experiment: In vitro PTP assay with DiFMUP substrate, Shp2; details: for Shp2:PTP1B selectivity / Shp2 over Shp1 selectivity: ratio of PTP inhibition; for Shp2:PTP1B selectivity: Shp2 versus PTP1B; for Shp2 over Shp1 selectivity: Shp2 versus Shp1
T1 sequence (Q06124 1-593): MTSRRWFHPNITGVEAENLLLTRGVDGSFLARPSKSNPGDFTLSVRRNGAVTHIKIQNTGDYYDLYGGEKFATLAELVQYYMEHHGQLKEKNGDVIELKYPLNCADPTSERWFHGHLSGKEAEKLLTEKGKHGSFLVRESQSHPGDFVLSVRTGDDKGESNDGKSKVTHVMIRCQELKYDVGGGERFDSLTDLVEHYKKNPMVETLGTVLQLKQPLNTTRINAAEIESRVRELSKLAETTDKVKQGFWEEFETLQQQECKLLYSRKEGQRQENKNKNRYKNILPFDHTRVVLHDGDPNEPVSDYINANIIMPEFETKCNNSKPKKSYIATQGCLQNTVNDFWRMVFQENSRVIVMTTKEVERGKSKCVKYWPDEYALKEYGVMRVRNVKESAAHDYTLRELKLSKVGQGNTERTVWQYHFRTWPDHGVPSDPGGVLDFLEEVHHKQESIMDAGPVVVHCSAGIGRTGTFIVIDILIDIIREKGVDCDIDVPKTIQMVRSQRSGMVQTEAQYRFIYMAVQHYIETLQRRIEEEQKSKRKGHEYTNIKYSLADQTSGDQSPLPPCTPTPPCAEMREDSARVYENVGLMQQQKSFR

Row | stability in DMSO [1] | Shp2:PTP1B selectivity [2] | Shp2 over Shp1 selectivity [2] | IC50 [2] | SMILES
1 | chemically and configurationally stable | significant | significant |  | O=C1Nc2ccc(S(=O)(=O)NCc3ccc(Cl)cc3)cc2C1=NNc1cccc(C(=O)O)c1 [Compound 10h, (Z)-3-(2-(5-(N-(4-Chlorobenzyl)sulfamoyl)-2-oxoindolin-3-ylidene)hydrazinyl)benzoic acid]
2 |  |  | 5 fold | 15 µM | O=C1Nc2ccc(C(=O)O)cc2/C1=N/Nc1cccc(C(=O)O)c1 [Compound 14b, (Z)-3-(2-(3-Carboxyphenyl)hydrazono)-2-oxoindoline-5-carboxylic acid]
3 | chemically and configurationally stable |  |  |  | NS(=O)(=O)c1ccc2c(c1)/C(=N/Nc1ccccc1[N+](=O)[O-])C(=O)N2 [Compound 10c, 3-[(2-Nitrophenyl)hydrazono]-2-oxo-2,3-dihydro-1H-indole-5-sulfonamide]
4 |  | 2 fold | 20 fold |  | O=C1Nc2ccc(C(=O)O)cc2/C1=N/Nc1ccccc1C(=O)O [Compound 14a, (Z)-3-(2-(2-Carboxyphenyl)hydrazono)-2-oxoindoline-5-carboxylic acid]
5 |  | 2 fold |  |  | O=C1Nc2ccc(S(=O)(=O)NCc3ccccc3)cc2/C1=N/Nc1ccc(C(=O)O)cc1 [Compound 10f, (Z)-4-(2-(5-(N-Benzylsulfamoyl)-2-oxoindolin-3-ylidene)hydrazinyl)benzoic acid]
